Here are results for 21 molecules from PubChem BioAssay (NCI).

Test systems include DU-145 prostate; MDA-MB-231 breast; MDA-N; NCI-H226 lung; RXF 393 renal; SF-295 CNS; SK-MEL-2 melanoma; SK-MEL-28 melanoma; SK-OV-3 ovarian; SNB-19 CNS.
What all share (experiment): NCI anticancer screen, dose series, 48 h

“And” between values parts separate entries of the source, which are not always exact repeats. Equal values may be shown once.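 Cells were grown in 96-well plates and exposed to each compound for 48 hours at five concentrations; endpoints were interpolated linearly between bracketing concentrations, or set to the highest concentration if not reached. GI50 is the concentration that inhibits growth by half. At the TGI there is no net growth.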

On to `COC(=O)[C@@]12CC3CN(Cc4c1[nH]c1ccccc41)C2CC3=O`, for which the TGI in the experiment on DU-145 prostate, with MDA-MB-231 breast, in the experiment with MDA-N, in the experiment on NCI-H226 lung, in the experiment with RXF 393 renal and in the experiment with SF-295 CNS was over 100 µM in each case. The TGI in the experiment with SK-MEL-2 melanoma, with SK-MEL-28 melanoma, in the experiment with SK-OV-3 ovarian and in the experiment on SNB-19 CNS was over 100 µM in each case.
On to `COc1ccc(/C=C/C=C2C(=O)NC(=S)NC2=O)cc1`, for which the TGI in the experiment on DU-145 prostate turned out to be 17.7 µM; with MDA-MB-231 breast it was 4.57 µM; in the experiment on MDA-N it was 15.2 µM; in the experiment with NCI-H226 lung, 44.6 µM; with RXF 393 renal, 16.8 µM; in the experiment with SF-295 CNS, 29.9 µM. The TGI with SK-MEL-2 melanoma worked out at 35.3 µM; in the experiment on SK-MEL-28 melanoma, 3.45 µM; in the experiment on SK-OV-3 ovarian, 33.2 µM; in the experiment on SNB-19 CNS, 20 µM.
As for `Nc1c2c(nc3ccccc13)-c1ccccc1CCC2`, the TGI in the experiment with DU-145 prostate came to 32.8 µM; with MDA-MB-231 breast, 27.8 µM; in the experiment with MDA-N, 25.9 µM; in the experiment with NCI-H226 lung, 28.9 µM; with RXF 393 renal, 23.7 µM; in the experiment on SF-295 CNS it was 19.1 µM. For the same molecule, the TGI in the experiment with SK-MEL-2 melanoma was 28.2 µM; with SK-MEL-28 melanoma, 27.3 µM; in the experiment with SK-OV-3 ovarian, 31 µM; with SNB-19 CNS it was 55.4 µM.
As for `COC(=O)/C=C1\C(=O)N(C(C)=O)c2ccccc21`, the TGI with DU-145 prostate was 24.1 µM; with MDA-MB-231 breast, 21.3 µM; in the experiment on MDA-N, 25.2 µM; in the experiment on NCI-H226 lung, 27.8 µM; in the experiment with RXF 393 renal, 21.5 µM; in the experiment on SF-295 CNS it was over 55.2 µM. Moreover, the TGI is 33.5 µM in the experiment with SK-MEL-2 melanoma, 32.7 µM with SK-MEL-28 melanoma, 29.7 µM in the experiment with SK-OV-3 ovarian and over 51.9 µM with SNB-19 CNS.
In the case of `CC(C)=CCC[C@@H](C)c1c(O)c(O)c(C)c2nc3ccccc3nc12`, the TGI in the experiment with DU-145 prostate was determined as 10.3 µM; with MDA-MB-231 breast it was 15 µM; with MDA-N, 15.9 µM; with NCI-H226 lung it was 5.97 µM; in the experiment on RXF 393 renal, 4.45 µM; in the experiment with SF-295 CNS it was 4.93 µM. In addition, the TGI in the experiment on SK-MEL-2 melanoma is 9.26 µM; with SK-MEL-28 melanoma it was 23.8 µM; with SK-OV-3 ovarian, 21.7 µM; in the experiment with SNB-19 CNS, 15.5 µM.
On to `COc1cc2[nH]c(=O)[nH]c2c2c(C)c[nH]c12`, for which the TGI in the experiment with DU-145 prostate, in the experiment on MDA-MB-231 breast, in the experiment on MDA-N, with NCI-H226 lung, in the experiment on RXF 393 renal and in the experiment with SF-295 CNS was over 100 µM each time. For the same molecule, the TGI in the experiment on SK-MEL-2 melanoma, in the experiment with SK-MEL-28 melanoma, in the experiment on SK-OV-3 ovarian and in the experiment with SNB-19 CNS was over 100 µM in each case.
As for `CC1CN=C(c2ccc3c(c2)Cc2cc(C4=NCC(C)N4)ccc2-3)N1` (stereo unspecified), the TGI in the experiment with DU-145 prostate, with MDA-MB-231 breast, in the experiment on MDA-N, in the experiment with NCI-H226 lung, in the experiment on RXF 393 renal and in the experiment on SF-295 CNS was over 100 µM each time. The TGI in the experiment on SK-MEL-2 melanoma is 44.8 µM; in the experiment on SK-MEL-28 melanoma, over 100 µM; in the experiment on SK-OV-3 ovarian, over 100 µM; in the experiment with SNB-19 CNS, over 100 µM.
For the molecule `O=C(O)C(C1NCCS1)N1Cc2ccccc2C1` (stereo unspecified), the TGI in the experiment with DU-145 prostate, with MDA-MB-231 breast, in the experiment on MDA-N, in the experiment on NCI-H226 lung, in the experiment with RXF 393 renal and in the experiment on SF-295 CNS was over 100 µM throughout. Also, the TGI in the experiment on SK-MEL-2 melanoma, with SK-MEL-28 melanoma, with SK-OV-3 ovarian and in the experiment on SNB-19 CNS was over 100 µM each time.
With `Cc1cc([C@H](C#N)c2nc3ccccc3s2)nc(Cl)n1`, the TGI in the experiment with DU-145 prostate was 91.7 µM; in the experiment with MDA-MB-231 breast it was 11 µM; in the experiment with MDA-N, over 100 µM; in the experiment on NCI-H226 lung, 35.1 µM; with RXF 393 renal it was over 100 µM; in the experiment on SF-295 CNS, over 100 µM. In addition, the TGI in the experiment with SK-MEL-2 melanoma was over 100 µM; in the experiment with SK-MEL-28 melanoma, 39.1 µM; in the experiment with SK-OV-3 ovarian, 56.5 µM; in the experiment with SNB-19 CNS, over 100 µM.
For the molecule `CS(=O)(=O)c1ccc(C2=C(c3ccccc3)C(=O)OC2)cc1`, the TGI in the experiment on DU-145 prostate, in the experiment on MDA-MB-231 breast, with MDA-N, in the experiment on NCI-H226 lung, with RXF 393 renal and with SF-295 CNS was over 100 µM in each case. In addition, the TGI in the experiment on SK-MEL-2 melanoma, in the experiment with SK-MEL-28 melanoma, with SK-OV-3 ovarian and with SNB-19 CNS was over 100 µM in each case.
As for `CO/C=C(/C(=O)OC)c1ccccc1[C@H]1C[C@@H]1c1ccc(OC)cc1`, the TGI with DU-145 prostate is over 100 µM; with MDA-MB-231 breast it was 94.2 µM; in the experiment on MDA-N it was 56.7 µM; in the experiment with NCI-H226 lung it was over 100 µM; in the experiment with RXF 393 renal, over 100 µM; with SF-295 CNS it was 46.3 µM. Moreover, the TGI in the experiment on SK-MEL-2 melanoma is 32.1 µM; with SK-MEL-28 melanoma it was 52.2 µM; in the experiment on SK-OV-3 ovarian, 60.7 µM; with SNB-19 CNS it was over 100 µM.
In the case of `COc1c(Cl)ccc(Cl)c1-c1nnc(-c2c(Cl)c(Cl)c(Cl)c(Cl)c2-c2nc3ccc(C(=O)c4ccccc4)cc3[nH]2)o1`, the TGI is over 100 µM with DU-145 prostate; over 100 µM with MDA-MB-231 breast; 46.4 µM with MDA-N; 78.5 µM in the experiment with NCI-H226 lung; 65.4 µM in the experiment on RXF 393 renal; 85.7 µM in the experiment with SF-295 CNS. The TGI in the experiment on SK-MEL-2 melanoma, in the experiment with SK-MEL-28 melanoma, with SK-OV-3 ovarian and in the experiment with SNB-19 CNS was over 100 µM each time.
For `O=c1[nH]/c(=C/c2cccs2)c(=O)[nH]/c1=C/c1ccc(OCc2ccccc2)cn1`, the TGI with DU-145 prostate is 5.04 µM; in the experiment on MDA-MB-231 breast it was over 48.9 µM; with MDA-N, 0.0766 µM; in the experiment with NCI-H226 lung, 33.3 µM; with RXF 393 renal, 3.88 µM; in the experiment on SF-295 CNS, 0.119 µM. For the same molecule, the TGI with SK-MEL-2 melanoma was over 52.2 µM; in the experiment with SK-MEL-28 melanoma, over 100 µM; in the experiment on SK-OV-3 ovarian it was 16.1 µM; with SNB-19 CNS, over 46.2 µM.
Take `CC1CCC(O)/C=C/C(=O)OC(C)C(O)/C=C/C(=O)O1` (stereo unspecified): the TGI in the experiment with DU-145 prostate, with MDA-MB-231 breast, with MDA-N, in the experiment on NCI-H226 lung, with RXF 393 renal and with SF-295 CNS was over 100 µM throughout. In addition, the TGI in the experiment with SK-MEL-2 melanoma, with SK-MEL-28 melanoma, in the experiment with SK-OV-3 ovarian and in the experiment on SNB-19 CNS was over 100 µM throughout.
`COc1ccc(NC(=O)c2cc(NC(=O)/C=C/c3ccccc3)c(OC)c(OC)c2)cc1`: the TGI with DU-145 prostate was over 100 µM; with MDA-MB-231 breast it was over 100 µM; in the experiment on MDA-N it was 16.5 µM; with NCI-H226 lung it was over 100 µM; in the experiment with RXF 393 renal, over 100 µM; in the experiment on SF-295 CNS, over 100 µM. Also, the TGI in the experiment on SK-MEL-2 melanoma was 7.27 µM; in the experiment with SK-MEL-28 melanoma, over 100 µM; in the experiment on SK-OV-3 ovarian, over 100 µM; in the experiment with SNB-19 CNS, over 100 µM.
In the case of `O=C(O)c1cc(/C=C/c2ccc(O)c(O)c2)ccc1O`, the TGI with DU-145 prostate, with MDA-MB-231 breast, in the experiment on MDA-N, in the experiment on NCI-H226 lung, with RXF 393 renal and in the experiment on SF-295 CNS was over 100 µM in each case. In addition, the TGI in the experiment on SK-MEL-2 melanoma, in the experiment with SK-MEL-28 melanoma, in the experiment on SK-OV-3 ovarian and with SNB-19 CNS was over 100 µM throughout.
In the case of `C(=C/c1ccc2nc(-c3ccc(/C=C/C=N/NC4=NCCCN4)cc3)cn2c1)/C=N/NC1=NCCCN1`, the TGI with DU-145 prostate is 41.6 µM; in the experiment with MDA-MB-231 breast, 28.5 µM; in the experiment on MDA-N, over 100 µM; in the experiment on NCI-H226 lung, 32.6 µM; in the experiment with RXF 393 renal, 48.6 µM; with SF-295 CNS it was over 100 µM. In addition, the TGI in the experiment on SK-MEL-2 melanoma, in the experiment with SK-MEL-28 melanoma, in the experiment on SK-OV-3 ovarian and in the experiment on SNB-19 CNS was over 100 µM throughout.
As to `NC1=CN2c3ccccc3N(CC(=O)N3CCOCC3)C2C=C1` (stereo unspecified), the TGI in the experiment on DU-145 prostate, with MDA-MB-231 breast, in the experiment on MDA-N, in the experiment with NCI-H226 lung, in the experiment with RXF 393 renal and in the experiment on SF-295 CNS was over 100 µM in each case. Besides, the TGI in the experiment on SK-MEL-2 melanoma, with SK-MEL-28 melanoma, with SK-OV-3 ovarian and in the experiment on SNB-19 CNS was over 100 µM throughout.
With `N#CCCN(CCN(CCN(C(=O)Nc1ccccc1)c1ccccc1)C(=O)Nc1ccccc1)C(=O)Nc1ccccc1`, the TGI with DU-145 prostate, in the experiment with MDA-MB-231 breast, in the experiment on MDA-N, in the experiment on NCI-H226 lung, in the experiment on RXF 393 renal and with SF-295 CNS was over 100 µM throughout. Moreover, the TGI in the experiment with SK-MEL-2 melanoma, in the experiment on SK-MEL-28 melanoma, with SK-OV-3 ovarian and in the experiment on SNB-19 CNS was over 100 µM in each case.
For `Cc1cc2nc(N)n[n+]([O-])c2cc1C`, the TGI in the experiment with DU-145 prostate, in the experiment with MDA-MB-231 breast, in the experiment with MDA-N, in the experiment on NCI-H226 lung, with RXF 393 renal and in the experiment with SF-295 CNS was over 100 µM each time. Also, the TGI with SK-MEL-2 melanoma, in the experiment with SK-MEL-28 melanoma, in the experiment with SK-OV-3 ovarian and in the experiment with SNB-19 CNS was over 100 µM in each case.
Consider `COC(=O)c1ccc2c(c1)CCN2C(=O)c1cc2c(cc1Br)OCO2`, for which the GI50 with DU-145 prostate is 3.02 µM; with MDA-MB-231 breast, 2 µM; in the experiment with MDA-N, 0.252 µM; in the experiment with SF-295 CNS, 0.683 µM; in the experiment on SK-MEL-28 melanoma it was 19.2 µM; in the experiment on SNB-19 CNS it was 1.31 µM. In addition, the TGI in the experiment on DU-145 prostate is 26.9 µM and > 100 µM; in the experiment on MDA-MB-231 breast, 50 µM and > 100 µM; in the experiment on MDA-N, 0.244 µM and 0.841 µM; in the experiment with NCI-H226 lung, 4.44 µM; in the experiment with RXF 393 renal it was 4.72 µM; in the experiment on SF-295 CNS it was 50 µM and > 100 µM. The TGI is 5.7 µM and 36.4 µM with SK-MEL-2 melanoma; 50 µM and > 100 µM in the experiment on SK-MEL-28 melanoma; over 100 µM with SK-OV-3 ovarian; 12.8 µM and > 100 µM with SNB-19 CNS.
